# According to patent US10265378B2, “Combination therapy for head and neck cancer” (Cornell University, priority 2014, dated 2019):
# Experiments:
# [1] = Mouse serum triglyceride level measurements; assay type: in vivo; settings: treatment for 15 weeks; compared to the UNT group
# Description: Mouse serum triglyceride level measurements. Blood samples from the mice were obtained from mouse tails. The analysis of serum triglyceride levels was carried out at the Laboratory of Comparative Pathology of the Memorial Sloan-Kettering Cancer Center. UNT (n=4); 4-NQO (n=3); 4N+B (n=4); 4N+C (n=3), and 4N+B+C (n=4).
# [2] = test system: GO categories in mouse tongue; test: Gene ontology (GO) analysis of RNA-Seq data; assay type: in vivo; settings: compared to the 4-NQO group
# Description: Gene ontology (GO) analysis. Gene ontology (GO) analysis (p-value cutoff: 0.00001), using the ConsensusPathDB online tool, was conducted on the Gene Ontology level 3 of the “Biological Process” domain that has predefined, functional sets for enrichment analysis with default parameter settings.
# β-catenin = test: Immunohistochemistry of tongue epithelium: β-catenin; assay type: in vivo, mouse; settings: compared to the 4-NQO group; antibody staining
# Description: Immunohistochemistry. Paraffin embedded tongue sections were stained with various antibodies (supporting information).
# Immunohistochemistry. Paraffin-embedded sections (from two to four mice per group) were deparaffinized and rehydrated, and antigen retrieval was performed using an antigen unmasking solution (Vector Laboratories, H-3300). After quenching endogenous peroxidase with 3% H2O2, the tissue sections were blocked with the blocking reagent (from the M.O.M. kit from Vector Laboratories for 4-HNE) or 10% goat serum (Vector Laboratories). Then, tissue sections were incubated with a 4-HNE antibody (1:700; mouse monoclonal antibody; Abcam, ab48506), a β-catenin antibody (1:400; rabbit polyclonal antibody; Abcam, ab6302), or a MMP9 antibody (1:70; rabbit polyclonal antibody; Abcam, ab38898), respectively, overnight at 4° C. The sections were then incubated with secondary antibodies (1:200, anti-mouse IgG from the M.O.M kit for 4-1-INE; ready-to-use anti-rabbit IgG from the Invitrogen SuperPicture kit for β-catenin and MMP9). As a negative control, sections were stained without incubation with primary antibodies. The signals were visualized based on a peroxidase detection mechanism with 3,3-diaminobenzidine (DAB) used as the substrate. Four to five representative areas of each mouse tongue section from two to four mice per group were photographed and analyzed.
# [3] = Consumption of drug containing drinking water and diet; assay type: in vivo, mouse; settings: 4-NQO treated mice, 15 week post 4-NQO treatment
# Text: Drug treatments reduce tongue tumor development. All of the mice tolerated the 10 week 4-NQO treatment, and almost all of the mice survived the 15 week post 4-NQO treatment period (A). We determined that the CD1530 in the regular drinking water was stable for at least 7 days at room temperature by HPLC analysis (FIG. 7); thus, we decided to use drinking water as a delivery method because this method is effective and less laborious.
# [4] = test system: pathways (Reactome, KEGG, MouseCyc) in mouse tongue; test: Pathway enrichment analysis (ConsensusPathDB) of RNA-Seq data
# Description: RNA-Seq analysis of mRNA transcriptome. Representative tongue samples were chosen for the RNA-Seq analysis: untreated (n=5), 4-NQO treatment group (n=3), 4N+B (n=4), 4N+C (n=4), and 4N+B+C (n=5). The extraction of total cellular RNA from mouse tissues was carried out using the RNeasy kit (Qiagen). Subsequent RNA preparation steps were carried out at the Genomics Resources Core Facility of WCMC. The measurement of RNA integrity was determined using the Agilent 2100 BioAnalyzer (Agilent Technologies). Samples with RNA integrity number (RIN) values of 10 were used to construct cDNA libraries. mRNA was purified by using pre-prepared Sera-mag Magnetic Oligo(dT) Beads from Illumina Inc. (SanDiego, Calif.), subjected to thermal fragmentation, and reverse transcribed to first strand cDNA. Following the removal of mRNA strands by RNaseH, first strand cDNAs were used as templates to produce double strand cDNAs, and the overhangs resulting from fragmentation were repaired to blunt ends. An ‘A’ base was added to the 3′ end of cDNAs and subsequently the cDNAs were ligated to Illumina paired end (PE) adaptors that have a single ‘T’ base overhang at their 3′ end. The cDNA-adaptor libraries were purified and enriched by 15 cycles of PCR. The enriched libraries were hybridized to a flow cell and amplified, resulting in ultra-high density flow cells with millions of clusters, each containing about 1,000 copies of the templates. The double stranded cDNA-adaptors were denatured and converted into single strand DNA, and then the template cDNAs were amplified one more time isothermally to produce surface-bound colonies. The clonal DNA clusters were linearized, free 3′ OH ends blocked, denatured, hybridized to sequencing primers, and sequenced. The sequencing was conducted by running 4 samples per lane with 51 pair-end cycles on the HISeq2000/1000. The Sequencing-by-Synthesis process used reversible terminators and a DNA polymerase modified to accept reversible terminator nucleotides. After each synthesis cycle the fluorescence of clusters was imaged with high sensitivity. Then the sequencing images were analyzed in three steps, image analysis, base calling, and sequence analysis. The Tophat software was used to align raw sequencing reads against the UCSC mm9 mouse reference genome, and Cufflinks software was employed to measure transcript abundances in the unit of fragments per kilobase of exon model per million mapped reads (FPKM), as well as to perform statistical analysis on the changes in gene expression. The heat maps for genes of interest were generated by R package software.
# [5] = down-regulated vs. 4-NQO group, KEGG
# [6] = down-regulated vs. 4-NQO group, Reactome
# [7] = upregulated vs. 4-NQO group, KEGG
# [8] = upregulated vs. 4-NQO group, MouseCyc
# [9] = upregulated vs. 4-NQO group, Reactome
compound,measurement,setting,value
O=C(O)c1ccc(-c2ccc3cc(O)c(C45CC6CC(CC(C6)C4)C5)cc3c2)cc1 [CD1530],serum triglyceride levels,[1],did not change serum triglyceride levels significantly
same,"GO categories related to cell cycle, DNA replication, and mitosis",[2],most under-expressed
same,over-represented GO categories,[2],"over-representation of many GO categories, with some of them involved in lipid metabolism"
same,β-catenin protein levels in the tongue epithelium,β-catenin,lower β-catenin protein levels
same,consumption of drinking water containing drug vs regular drinking water,[3],comparable
same,cytochrome P450 enzymes (pathway analysis),[4]; compared to the 4-NQO group,significantly elevated
same,"candidates contained, pathway Cell cycle-Mus musculus (mouse)",[4]; [5],23 (18.1%)
same,"candidates contained, pathway DNA replication-Mus musculus (mouse)",[4]; [5],9 (25.0%)
same,"candidates contained, pathway ECM-receptor interaction-Mus musculus (mouse)",[4]; [5],13 (15.1%)
same,"candidates contained, pathway Pathways in cancer-Mus musculus (mouse)",[4]; [5],27 (8.4%)
same,"candidates contained, pathway Small cell lung cancer-Mus musculus (mouse)",[4]; [5],13 (14.9%)
same,"candidates contained, pathway p53 signaling pathway-Mus musculus (mouse)",[4]; [5],12 (17.4%)
same,"candidates contained, pathway Activation of ATR in response to replication stress",[4]; [6],11 (28.9%)
same,"candidates contained, pathway Activation of the pre-replicative complex",[4]; [6],11 (37.9%)
same,"candidates contained, pathway Assembly of the pre-replicative complex",[4]; [6],9 (40.9%)
same,"candidates contained, pathway Cell Cycle",[4]; [6],54 (17.8%)
same,"candidates contained, pathway Cell Cycle Checkpoints",[4]; [6],19 (24.7%)
same,"candidates contained, pathway Cell Cycle, Mitotic",[4]; [6],52 (19.4%)
same,"candidates contained, pathway Cyclin A/B1 associated events during G2/M transition",[4]; [6],6 (37.5%)
same,"candidates contained, pathway Cyclin B2 mediated events",[4]; [6],4 (80.0%)
same,"candidates contained, pathway DNA Replication",[4]; [6],41 (26.1%)
same,"candidates contained, pathway DNA Replication Pre-Initiation",[4]; [6],12 (33.3%)
same,"candidates contained, pathway DNA strand elongation",[4]; [6],8 (25.8%)
same,"candidates contained, pathway G1/S Transition",[4]; [6],14 (22.6%)
same,"candidates contained, pathway G2/M Checkpoints",[4]; [6],14 (31.1%)
same,"candidates contained, pathway M Phase",[4]; [6],27 (27.3%)
same,"candidates contained, pathway M/G1 Transition",[4]; [6],12 (33.3%)
same,"candidates contained, pathway Mitotic G1-G1/S phases",[4]; [6],16 (21.9%)
same,"candidates contained, pathway Mitotic M-M/G1 phases",[4]; [6],39 (28.9%)
same,"candidates contained, pathway Mitotic Prometaphase",[4]; [6],26 (27.4%)
same,"candidates contained, pathway Orc1 removal from chromatin",[4]; [6],8 (28.6%)
same,"candidates contained, pathway Regulation of DNA replication",[4]; [6],10 (33.3%)
same,"candidates contained, pathway Removal of licensing factors from origins",[4]; [6],10 (33.3%)
same,"candidates contained, pathway S Phase",[4]; [6],12 (17.4%)
same,"candidates contained, pathway Switching of origins to a post-replicative state",[4]; [6],8 (28.6%)
same,"candidates contained, pathway Synthesis of DNA",[4]; [6],11 (20.4%)
same,"candidates contained, pathway Unwinding of DNA",[4]; [6],6 (54.5%)
same,"candidates contained, pathway Arachidonic acid metabolism-Mus musculus (mouse)",[4]; [7],25 (26.6%)
same,"candidates contained, pathway Ascorbate and aldarate metabolism-Mus musculus (mouse)",[4]; [7],11 (42.3%)
same,"candidates contained, pathway Bile secretion-Mus musculus (mouse)",[4]; [7],23 (32.4%)
same,"candidates contained, pathway Biosynthesis of unsaturated fatty acids-Mus musculus (mouse)",[4]; [7],10 (40.0%)
same,"candidates contained, pathway Complement and coagulation cascades-Mus musculus (mouse)",[4]; [7],38 (50.0%)
same,"candidates contained, pathway Drug metabolism-cytochrome P450-Mus musculus (mouse)",[4]; [7],52 (59.8%)
same,"candidates contained, pathway Drug metabolism-other enzymes-Mus musculus (mouse)",[4]; [7],22 (39.3%)
same,"candidates contained, pathway Fatty acid metabolism-Mus musculus (mouse)",[4]; [7],13 (26.5%)
same,"candidates contained, pathway Glycine, serine and threonine metabolism-Mus musculus (mouse)",[4]; [7],12 (30.8%)
same,"candidates contained, pathway Linoleic acid metabolism-Mus musculus (mouse)",[4]; [7],24 (53.3%)
same,"candidates contained, pathway Maturity onset diabetes of the young-Mus musculus (mouse)",[4]; [7],11 (42.3%)
same,"candidates contained, pathway Metabolic pathways-Mus musculus (mouse)",[4]; [7],160 (13.4%)
same,"candidates contained, pathway Metabolism of xenobiotics by cytochrome P450-Mus musculus (mouse)",[4]; [7],50 (55.6%)
same,"candidates contained, pathway PPAR signaling pathway-Mus musculus (mouse)",[4]; [7],24 (29.6%)
same,"candidates contained, pathway Pentose and glucuronate interconversions-Mus musculus (mouse)",[4]; [7],11 (34.4%)
same,"candidates contained, pathway Peroxisome-Mus musculus (mouse)",[4]; [7],18 (22.8%)
same,"candidates contained, pathway Primary bile acid biosynthesis-Mus musculus (mouse)",[4]; [7],8 (50.0%)
same,"candidates contained, pathway Propanoate metabolism-Mus musculus (mouse)",[4]; [7],11 (34.4%)
same,"candidates contained, pathway Retinol metabolism-Mus musculus (mouse)",[4]; [7],42 (53.2%)
same,"candidates contained, pathway Serotonergic synapse-Mus musculus (mouse)",[4]; [7],24 (17.3%)
same,"candidates contained, pathway Steroid hormone biosynthesis-Mus musculus (mouse)",[4]; [7],19 (34.5%)
same,"candidates contained, pathway Tryptophan metabolism-Mus musculus (mouse)",[4]; [7],16 (36.4%)
same,"candidates contained, pathway Tyrosine metabolism-Mus musculus (mouse)",[4]; [7],11 (28.2%)
same,"candidates contained, pathway beta-Alanine metabolism-Mus musculus (mouse)",[4]; [7],10 (33.3%)
same,"candidates contained, pathway bupropion degradation",[4]; [8],29 (74.4%)
same,"candidates contained, pathway nicotine degradation II",[4]; [8],41 (65.1%)
same,"candidates contained, pathway nicotine degradation III",[4]; [8],35 (63.6%)
same,"candidates contained, pathway Activation of C3 and C5",[4]; [9],5 (83.3%)
same,"candidates contained, pathway Bile acid and bile salt metabolism",[4]; [9],19 (50.0%)
same,"candidates contained, pathway Biological oxidations",[4]; [9],64 (40.5%)
same,"candidates contained, pathway Chylomicron-mediated lipid transport",[4]; [9],11 (61.1%)
same,"candidates contained, pathway Common Pathway",[4]; [9],9 (69.2%)
same,"candidates contained, pathway Complement cascade",[4]; [9],11 (39.3%)
same,"candidates contained, pathway Cytochrome P450-arranged by substrate type",[4]; [9],42 (51.2%)
same,"candidates contained, pathway Formation of Fibrin Clot (Clotting Cascade)",[4]; [9],18 (52.9%)
same,"candidates contained, pathway Gamma-carboxylation of protein precursors",[4]; [9],6 (66.7%)
same,"candidates contained, pathway Gamma-carboxylation, transport, and amino-terminal cleavage of proteins",[4]; [9],6 (60.0%)
same,"candidates contained, pathway HDL-mediated lipid transport",[4]; [9],9 (52.9%)
same,"candidates contained, pathway Intrinsic Pathway",[4]; [9],10 (50.0%)
same,"candidates contained, pathway Lipid digestion, mobilization, and transport",[4]; [9],18 (36.7%)
same,"candidates contained, pathway Lipoprotein metabolism",[4]; [9],16 (51.6%)
same,"candidates contained, pathway Metabolism",[4]; [9],181 (18.6%)
same,"candidates contained, pathway Metabolism of amino acids and derivatives",[4]; [9],34 (27.4%)
same,"candidates contained, pathway Metabolism of lipids and lipoproteins",[4]; [9],57 (21.8%)
same,"candidates contained, pathway Miscellaneous substrates",[4]; [9],10 (55.6%)
same,"candidates contained, pathway Phase 1-Functionalization of compounds",[4]; [9],51 (51.5%)
same,"candidates contained, pathway Phase II conjugation",[4]; [9],14 (23.3%)
same,"candidates contained, pathway Phenylalanine and tyrosine catabolism",[4]; [9],7 (87.5%)
same,"candidates contained, pathway Platelet degranulation",[4]; [9],19 (29.7%)
same,"candidates contained, pathway Recycling of bile acids and salts",[4]; [9],7 (50.0%)
same,"candidates contained, pathway Removal of aminoterminal propeptides from gamma-carboxylated proteins",[4]; [9],6 (66.7%)
same,"candidates contained, pathway Response to elevated platelet cytosolic Ca2+",[4]; [9],19 (27.1%)
same,"candidates contained, pathway Synthesis of bile acids and bile salts",[4]; [9],15 (55.6%)
same,"candidates contained, pathway Synthesis of bile acids and bile salts via 7alpha-hydroxycholesterol",[4]; [9],15 (65.2%)
same,"candidates contained, pathway Synthesis of bile acids and bile salts via 24-hydroxycholesterol",[4]; [9],11 (61.1%)
same,"candidates contained, pathway Synthesis of bile acids and bile salts via 27-hydroxycholesterol",[4]; [9],8 (57.1%)
same,"candidates contained, pathway Terminal pathway of complement",[4]; [9],5 (83.3%)
same,"candidates contained, pathway Transport of gamma-carboxylated protein precursors from the ER to the Golgi apparatus",[4]; [9],6 (75.0%)
same,"candidates contained, pathway Xenobiotics",[4]; [9],31 (81.6%)
